In general, IC50 refers to the point on the concentration scale where inhibition reaches its midpoint.

Structures are written as SMILES. Calls of active or inactive are those of the source. The rule behind the calls is not given here. A value given as a limit tells only on which side of the number the result lay.

Our source for the IC50 values is PubChem BioAssay AID743296 (The Scripps Research Institute Molecular Screening Center, 2014).

The assay concerns the target CCHFV viral ovarian tumor domain protease (vOTU, L protein). Nature of the assay: CCHFV vOTU protease inhibitor potency, dose response, biochemical, fluorescence, Pep-AMC substrate (AID 743296). The following applies: recombinant CCHFV vOTU.
As for `COc1cc(Br)c(C(=O)c2nccc3cc(OC)c(OC)cc23)cc1OC`, the IC50 was 0.276 µM.
Consider `CC1COCC(C)N1C1=C(Cl)C(=O)c2ccccc2C1=O` (configuration not stated), for which the IC50 was 7.43 µM.
For the molecule `COC(CNC(=O)c1ccc2c3c(onc13)-c1ccccc1C2=O)OC`, the IC50 was 7.11 µM.
In the case of `O=C(NC1=CC(=O)c2ccccc2C1=O)c1ccccc1`, the IC50 was 4.64 µM.
Turning to `Cc1cnc(C2OCCO2)c2cccc(N)c12`, the IC50 result was “inactive”.
On to `CCOC(=O)N=Nc1c2ccccc2c2nc3no[nH]c3nc12`, for which the IC50 was 2.54 µM.
On to `O=C(OCc1nnc(-c2ccccc2)o1)c1ccc([N+](=O)[O-])s1`, for which the IC50 is 6.91 µM.
Consider `O=C1C=C(Nc2ccccc2)c2ccccc2C1=O`, for which the IC50 is 6.64 µM.
With `COC1=C(N)C(=O)c2nc(C)ccc2C1=O` the figure was 0.824 µM; with `O=C(O)CSc1cc(NS(=O)(=O)c2ccc(Cl)cc2)c2ccccc2c1O`, 3.4 µM.
With `O=C1Cc2ccccc2C(=O)N1`, the IC50 is 0.419 µM.
On to `CCOC(=O)c1c2c(n(Cc3ccccc3)c1C)C(=O)C(=O)c1ccccc1-2`, for which the IC50 was 2.12 µM.
With `COc1cc(NCCCCCCN)c2ncccc2c1OC` the entry was “inactive”; with `Cc1c(Cl)cnc(NC(=O)COC(=O)c2ccc([N+](=O)[O-])s2)c1Cl`, “inactive”.
With `Cc1ccc(N2C(=O)[C@@H]3[C@H](C2=O)C2c4ccccc4C=CN2[C@@H]3C(=O)c2ccco2)cc1` (some centres not stated), the 50% inhibitory concentration (IC50) is 6.53 µM.
Turning to `NS(=O)(=O)c1ccc(NC(=O)COC(=O)c2ccc([N+](=O)[O-])s2)cc1`, the IC50 is 8.1 µM.
With `COc1cc(C(=O)c2nccc3cc(OC)c(OC)cc23)c([N+](=O)[O-])cc1OC` the figure was 1.42 µM.
As to `CCOC(=O)C1=C(COC(=O)c2ccc([N+](=O)[O-])s2)NC(=O)NC1C` (configuration not stated), the IC50 is 7.97 µM.
With `Cc1ccccc1-c1cc2c(nn1)-c1ccccc1C2=O` the figure was 0.545 µM; with `CN(C1=C(NC(=O)c2ccccc2)C(=O)c2ccccc2C1=O)C1CCS(=O)(=O)C1` (configuration not stated), 2.67 µM; with `O=C(NC1=C(NC2CCS(=O)(=O)C2)C(=O)c2ccccc2C1=O)c1ccccc1` (configuration not stated), 2.79 µM.
For `O=S(=O)(Nc1cc2nc3ccccc3nc2n1Cc1ccccc1)c1ccc(Cl)cc1`, the IC50 is 4.14 µM.
In the case of `O=S(=O)(Nc1cc(Sc2ncn[nH]2)c(O)c2ccccc12)c1ccccc1`, the concentration for half-maximal inhibition (IC50) was 0.458 µM.
Consider `S=C(Nc1ccc(Cl)cc1)Nc1cccc2cnccc12`, for which the IC50 result was “inactive”.
As for `COc1ccc2noc3c2c1C(=O)c1ccccc1-3`, the half-maximal inhibitory concentration (IC50) was 8.11 µM.
On to `O=C(COC(=O)c1ccc([N+](=O)[O-])s1)Nc1ccc(F)cc1`, for which the concentration for half-maximal inhibition (IC50) was 7.27 µM.
With `CC1CCCC(NC(=O)COC(=O)c2ccc([N+](=O)[O-])s2)C1C` (configuration not stated) the figure was 9.29 µM; with `CC1(C)C=C2C(=NN(c3ccccc3)C(N)=C2C#N)CO1`, 1.54 µM.
On to `O=C1OC(Nc2cc(Br)cc3cccnc23)c2ccccc21` (configuration not stated), for which the IC50 is > 115 µM (inactive).
With `COc1cc(NC(=O)COC(=O)c2ccc([N+](=O)[O-])s2)cc(OC)c1OC` the figure was 8.38 µM; with `O=C(COC(=O)c1ccc([N+](=O)[O-])s1)NCc1ccc(F)cc1`, 9.46 µM; with `CC(C)=CCC1=C(OCC(=O)O)C(=O)c2ccccc2C1=O`, 3.23 µM.
`O=C(/C=C/c1ccc(O)cc1)c1ccc(NC2=C(N3CCCCC3)C(=O)c3ccccc3C2=O)cc1`: the IC50 was 4.19 µM.
As for `Cc1ccc(NC2=CC(=O)C(=O)c3ccccc32)cc1`, the half-maximal inhibitory concentration (IC50) is 5.14 µM.
Next, `O=C(COC(=O)c1ccc([N+](=O)[O-])s1)Nc1ccccc1`: 8.21 µM; `COc1cc(NCCCC(C)N)c2ncccc2c1` (configuration not stated): > 115 µM (inactive); `CCC(CNc1cc(OC)cc2cccnc12)NC1CCCCC1` (configuration not stated): 5.86 µM.
Regarding `O=C(O)CSc1cc(NS(=O)(=O)c2ccc(Br)cc2)c2ccccc2c1O`, the IC50 was 1.66 µM.
Next, `NS(=O)(=O)c1ccc(NC2=CC(=O)C(=O)c3ccccc32)cc1`: 4.22 µM; `COc1cc2c(cc1O)[C@@H]1Cc3ccc(OC)c(O)c3CN1CC2`: “inactive”.
Next, `Cc1ccc2c(c1C)-c1c(ccc(C)c1C)C(=O)C2=O`: 7.46 µM; `O=C(O)CSc1cc(NS(=O)(=O)c2cccc([N+](=O)[O-])c2)c2ccccc2c1O`: 1.95 µM.
On to `CCc1cc[n+](C2=C(NS(=O)(=O)c3cccs3)C(=O)c3ccccc3C2=O)cc1`, for which the IC50 was 3.5 µM.
As for `NC1=C(Cl)C(=O)c2ccc(S(N)(=O)=O)cc2C1=O`, the IC50 was 0.122 µM.
Next, `Cn1nc(-c2ccccn2)nc2c(=O)n(C)c(=O)nc1-2`: 0.251 µM; `CC(=O)c1ccc(NC(=S)Nc2cccc3cnccc23)cc1`: > 115 µM (inactive).
In the case of `O=C(c1ccco1)[C@@H]1[C@@H]2C(=O)N(c3ccc(Br)cc3)C(=O)[C@@H]2C2c3ccccc3C=CN21` (some centres not stated), the IC50 was 5.18 µM.
Take `O=C(COC(=O)c1ccc([N+](=O)[O-])s1)Nc1ncc(C(F)(F)F)cc1Cl`: the IC50 result was “inactive”.
`COc1ccccc1NC(=O)COC(=O)c1ccc([N+](=O)[O-])s1`: the IC50 was 7.82 µM.
For the molecule `Nc1cc2c(cc1Br)[nH]c(=O)c1ccccc12`, the IC50 result is “inactive”.
With `O=C1Cc2ccccc2C(=O)N1CCc1ccccc1`, the IC50 is 0.901 µM.
As for `O=C1Cc2ccccc2C(=O)N1Cc1ccccc1`, the IC50 was 1.19 µM.
